Key:
[1] = system: apple scab caused by Venturia inaequalis; assay: Example 1: bark spray on apple trees, apple leaf scab incidence, severity and % control; type: in vivo; design: Apple leaf scab severity: scale not given here; Apple Leaf scab incidence: unit not given here; settings: for Apple Leaf scab incidence / Apple leaf % control / Apple leaf scab severity: bark spray
Text: (§1) Applicant conducted the following study to determine the effect of a 3-(difluoromethyl)-1-methyl-N-[(3R)-1,1,3-trimethyl-2,3-dihydroinden-4-yl]pyrazole-4-carboxamide bark spray application on common fungal infections in apple and pear trees. Applications were made in late February with a CO2 charged, single-tip hand sprayer. Treatments were applied as a spray to the lower 3 to 4 feet of the tree trunks all the way around the tree. The tree trunks were sprayed until they were wet. If the treatments included a surfactant (see tables), then the treatments included a surfactant at a rate of 3 fl oz/gallon of the spray mix. The apple trees were at bed swell stage. The apple tree trunks were about 5 to 8 inches in diameter. The pear trees were at mid-petal fall with some green leaves emerging. The pear tree trunks were about 10 to 12 inches in diameter. The following rates in grams per active/cm diameter tree trunk are based on an average trunk diameter. A large amount of apple scab naturally developed during this growing season in this location. The effects of the treatments on apple leaf phytotoxicity, apple leaf apple scab incidence, apple leaf scab severity, and apple leaf percent control were observed 113 and 169 days after treatment (“DAT”). The results of this study are below in Tables 1 and 2.

apple trees [2] = assay: Example 1: apple leaf phytotoxicity after bark spray; type: in vivo; design: scale not given here
Text: as §1

Fabraea leaf spot = assay: Example 1: bark spray on pear trees, Fabraea leaf spot control; type: in vivo; settings: bark spray at mid-petal fall, at this rate and time of development
Text: as §1

Alternaria leaf spot = assay: Example 1: bark spray on pear trees, Alternaria leaf spot control; type: in vivo; settings: bark spray at mid-petal fall, at this rate and time of development
Text: as §1

[3] = system: apple scab caused by Venturia inaequalis; assay: Example 2: apple tree trunk treatment, leaf and fruit pest incidence and severity; type: in vivo
Text: (§2) In this study, the 3-(difluoromethyl)-1-methyl-N-[(3R)-1,1,3-trimethyl-2,3-dihydroinden-4-yl]pyrazole-4-carboxamide treatment was applied at the time of bud swell in mid March on apple tree trunks (treatment 5). The result of this treatment was compared to metconazole treatments applied when the apple trees were dormant (treatments 2 and 3), at the time of bud swell (treatment 4), and a foliar spray applied after petal fall (treatment 6). The control treatment (treatment 1) was applied during bud swell, as well. Four trees were subjected to each treatment.

apple trees [4] = assay: Example 2: phytotoxicity on apple trees; type: in vivo
Text: as §2

Water solubility = type: physicochemical
apple scab = settings: background statement, cited from earlier work
[5] = 113 DAT, 0.003 grams active/cm trunk diameter + 2.3% V/V surfactant
[6] = 113 DAT, 0.03 grams active/cm trunk diameter + 2.3% V/V surfactant
[7] = 169 DAT, 0.003 grams active/cm trunk diameter + 2.3% V/V surfactant
[8] = 169 DAT, 0.03 grams active/cm trunk diameter + 2.3% V/V surfactant
[9] = first fruit pest, treatment 5, applied at the time of bud swell in mid March on apple tree trunks, 0.003 grams active/cm trunk diameter + 2.3% V/V surfactant
[10] = treatment 5, applied at the time of bud swell in mid March on apple tree trunks, 0.003 grams active/cm trunk diameter + 2.3% V/V surfactant
[11] = 113 DAT, 0.86 grams active/cm trunk diameter + 2.3% V/V surfactant
[12] = 113 DAT, 1.72 grams active/cm trunk diameter + 2.3% V/V surfactant
[13] = 113 DAT, 3.44 grams active/cm trunk diameter + 2.3% V/V surfactant
[14] = 169 DAT, 0.86 grams active/cm trunk diameter + 2.3% V/V surfactant
[15] = 169 DAT, 1.7 grams active/cm trunk diameter + 2.3% V/V surfactant
[16] = 169 DAT, 3.4 grams active/cm trunk diameter + 2.3% V/V surfactant
[17] = first fruit pest, treatment 2, applied when apple trees dormant, 1.72 grams active/cm trunk diameter + 2.3% V/V surfactant
[18] = first fruit pest, treatment 3, applied when apple trees dormant, 1.72 grams active/cm trunk diameter + 2.3% V/V surfactant
[19] = first fruit pest, treatment 4, applied at the time of bud swell, 1.72 grams active/cm trunk diameter + 2.3% V/V surfactant
[20] = first fruit pest, treatment 6, foliar spray applied after petal fall, 4 oz pr/A, surfactant not given
[21] = treatment 2, applied when apple trees dormant, 1.72 grams active/cm trunk diameter + 2.3% V/V surfactant
[22] = treatment 3, applied when apple trees dormant, 1.72 grams active/cm trunk diameter + 2.3% V/V surfactant
[23] = treatment 4, applied at the time of bud swell, 1.72 grams active/cm trunk diameter + 2.3% V/V surfactant
[24] = treatment 6, foliar spray applied after petal fall, 4 oz pr/A, surfactant not given
[25] = 113 DAT, 1.16 grams active/cm trunk diameter + 2.3% V/V surfactant
[26] = 169 DAT, 1.16 grams active/cm trunk diameter + 2.3% V/V surfactant

Structure (SMILES): C[C@@H]1CC(C)(C)c2cccc(NC(=O)c3cn(C)nc3C(F)F)c21 [3-(Difluoromethyl)-1-methyl-N-[(3R)-1,1,3-trimethyl-2,3-dihydroinden-4-yl]pyrazole-4-carboxamide]
- Apple Leaf scab incidence [1, 5]: 20
- Apple leaf % control [1, 5]: 88.3%
- Apple leaf scab severity [1, 5]: 13.8
- Apple Leaf scab incidence [1, 6]: 23
- Apple leaf % control [1, 6]: 80%
- Apple leaf scab severity [1, 6]: 16.3
- Apple Leaf scab incidence [1, 7]: 13.75
- Apple leaf % control [1, 7]: 43.8%
- Apple leaf scab severity [1, 7]: 7
- Apple Leaf scab incidence [1, 8]: 13.75
- Apple leaf % control [1, 8]: 46.3%
- Apple leaf scab severity [1, 8]: 4.5
- activity against apple scab caused by Venturia inaequalis ([1]; combined with a surfactant and applied as a bark spray, as compared to metconazole and propiconazole): excellent activity
- Apple Leaf Phytotoxicity (apple trees [2]; [5]): 0
- Apple Leaf Phytotoxicity (apple trees [2]; [6]): 0
- Apple Leaf Phytotoxicity (apple trees [2]; [7]): 0
- Apple Leaf Phytotoxicity (apple trees [2]; [8]): 0
- control of Fabraea leaf spot (Fabraea leaf spot): failed to provide adequate control
- control of Alternaria leaf spot (Alternaria leaf spot): failed to provide adequate control
- Fruit pest incidence [3, 9]: 10.25
- Fruit pest severity [3, 9]: 0.638
- Fruit pest incidence [3, 10]: 0.33
- Fruit pest severity [3, 10]: 0.183
- Leaf pest incidence [3, 10]: 0.25
- Leaf pest severity [3, 10]: 0.3
- Phytotoxicity (apple trees [4]; [10]): 0
- water solubility (Water solubility): low water solubility

Structure (SMILES): O=C1C2CC=CCC2C(=O)N1SC(Cl)(Cl)Cl (centres unmarked) [Captan, N-trichtoromethylthiocyclohexene-1,2-dicarboximide]
- systemic control activity (apple scab): no systemic control activity
- effectiveness against apple scab (apple scab; contact fungicide): effective against apple scab

Structure (SMILES): CC1(C)CCC(Cc2ccc(Cl)cc2)C1(O)Cn1cncn1 (centres unmarked) [Metconazole + Surfactant, metconazole]
- Apple Leaf scab incidence [1, 11]: 12.5
- Apple leaf % control [1, 11]: 80%
- Apple leaf scab severity [1, 11]: 10
- Apple Leaf scab incidence [1, 12]: 18
- Apple leaf % control [1, 12]: 68.8%
- Apple leaf scab severity [1, 12]: 18.3
- Apple Leaf scab incidence [1, 13]: 11.25
- Apple leaf % control [1, 13]: 80%
- Apple leaf scab severity [1, 13]: 13.3
- Apple Leaf scab incidence [1, 14]: 18.88
- Apple leaf % control [1, 14]: 31.3%
- Apple leaf scab severity [1, 14]: 4.25
- Apple Leaf scab incidence [1, 15]: 15.5
- Apple leaf % control [1, 15]: 27.5%
- Apple leaf scab severity [1, 15]: 4.75
- Apple Leaf scab incidence [1, 16]: 7.25
- Apple leaf % control [1, 16]: 62.5%
- Apple leaf scab severity [1, 16]: 2.75
- Apple Leaf Phytotoxicity (apple trees [2]; [11]): 0
- Apple Leaf Phytotoxicity (apple trees [2]; [12]): 0
- Apple Leaf Phytotoxicity (apple trees [2]; [13]): 0
- Apple Leaf Phytotoxicity (apple trees [2]; [14]): 0
- Apple Leaf Phytotoxicity (apple trees [2]; [15]): 0
- Apple Leaf Phytotoxicity (apple trees [2]; [16]): 0
- Fruit pest incidence [3, 17]: 33.75
- Fruit pest severity [3, 17]: 2.25
- Fruit pest incidence [3, 18]: 6.67
- Fruit pest severity [3, 18]: 0.333
- Fruit pest incidence [3, 19]: 14.00
- Fruit pest severity [3, 19]: 1.125
- Fruit pest incidence [3, 20]: 2.75
- Fruit pest severity [3, 20]: 0.263
- Fruit pest incidence [3, 21]: 45.0
- Fruit pest severity [3, 21]: 3.0
- Leaf pest incidence [3, 21]: 1.875
- Leaf pest severity [3, 21]: 5.0
- Fruit pest incidence [3, 22]: 10.0
- Fruit pest severity [3, 22]: 0.5
- Leaf pest incidence [3, 22]: 1.000
- Leaf pest severity [3, 22]: 1.7
- Fruit pest incidence [3, 23]: 18.67
- Fruit pest severity [3, 23]: 1.5
- Leaf pest incidence [3, 23]: 0.140
- Leaf pest severity [3, 23]: 2.0
- Fruit pest incidence [3, 24]: 3.67
- Fruit pest severity [3, 24]: 0.350
- Leaf pest incidence [3, 24]: 0.125
- Leaf pest severity [3, 24]: 0.8
- Phytotoxicity (apple trees [4]; [21]): 0
- Phytotoxicity (apple trees [4]; [22]): 0
- Phytotoxicity (apple trees [4]; [23]): 0
- Phytotoxicity (apple trees [4]; [24]): 0

Structure (SMILES): CCCC1COC(Cn2cncn2)(c2ccc(Cl)cc2Cl)O1 (centres unmarked) [Propiconazole + Surfactant, propiconazole]
- Apple Leaf scab incidence [1, 25]: 18.78
- Apple leaf % control [1, 25]: 68.3%
- Apple leaf scab severity [1, 25]: 8.3
- Apple Leaf scab incidence [1, 26]: 13.38
- Apple leaf % control [1, 26]: 36.3%
- Apple leaf scab severity [1, 26]: 4.63
- Apple Leaf Phytotoxicity (apple trees [2]; [25]): 0
- Apple Leaf Phytotoxicity (apple trees [2]; [26]): 0

From patent US10051863B2, “Methods for apple scab control” (Valent U.S.A., Corporation, priority 2015, dated 2018)
